Laboratory results: patent US8329699B2, “Pyrrolopyrazine kinase inhibitors” (Hoffmann-La Roche Inc., priority 2010, dated 2012)

Experiments:
[1] = biological target: T1, JAK3: Recombinant human kinase domain (h-jak3-sf21-c) (Homo sapiens, UniProt P52333); test: Determination of IC50 of Janus Kinase (JAK) inhibition, JAK3 (radioactive end-point assay with 33P-ATP); format: biochemical; details: ATP 1.5 uM, peptide 50 uM, 20 minutes, room temperature
T1 construct: JAK3: Recombinant human kinase domain from Millipore (Cat # 14-629) or prepared; purchased Millipore 14-629
Text: Determination of IC50 of Janus Kinase (JAK) Inhibition:
Enzymes and peptide substrate used are described below: • JAK1: Recombinant human kinase domain from Invitrogen (Cat # PV4774) • JAK3: Recombinant human kinase domain from Millipore (Cat # 14-629) or prepared. • JAK2: Recombinant human kinase domain from Millipore (Cat # 14-640) • Substrate: N-terminally biotinylated 14-mer peptide derived from activation loop of JAK1 with sequence of the peptide substrate: Biotin-[…]
Assay conditions used are described below: • Assay Buffer: JAK Kinase Buffer: 50 mM Hepes [pH 7.2], 10 mM MgCl2, 1 mM DTT, 1 mg/mL BSA. The assay is carried out in this buffer. • Assay Format The kinase activity of all three JAK kinases is measured using a radioactive, end-point assay and with trace amounts of^33P-ATP. The assays are carried out in 96-well polypropylene plates. Experimental Method:
All concentrations are final in the reaction mixture and all incubations are carried at room temperature. Assay steps are described below: • 1) Compounds are serially diluted in 100% DMSO typically at a 10× starting concentration of 1 mM. Final concentration of DMSO in the reaction is 10%. • 2) Compounds are preincubated with enzyme (0.5 nM JAK3 (commercially available), 0.2 nM JAK3 (prepared), 1 nM JAK2, 5 nM JAK1) for 10 minutes. • 3) Reactions are initiated by the addition of a cocktail of the two substrates (ATP and peptide premixed in the JAK Kinase Buffer). In the JAK2/JAK3 assays, ATP and the peptide are used at concentrations of 1.5 uM and 50 uM, respectively. JAK1 assay is carried out at an ATP concentration of 10 uM and a peptide concentration of 50 uM. • 4) The duration of the assay for JAK2 and JAK3 is 20 minutes. JAK1 assay is carried out for 40 minutes. With all three enzymes, reactions are terminated by the addition of 0.5M EDTA to a final concentration of 100 mM. • 5) 25 ul of terminated reactions are transferred to 150 ul of a 7.5% (v/v) slurry of streptavidin-coated sepharose beads in MgCl2- and CaCl2-free 1× Phosphate Buffered Saline containing 50 mM of EDTA in 96-well, 1.2 um MultiScreen-BV filter plates. • 6) After a 30-minute incubation, the beads are washed under vacuum with the following buffers: • a. 3 to 4 washes with 200 ul of 2M NaCl. • b. 3 to 4 washes with 200 ul of 2M NaCl plus 1% (v/v) phosphoric acid. • c. 1 wash with water. • 7) Washed plates are dried in a 60° C. oven for between 1 to 2 hours. • 8) 70 ul of Microscint 20 scintillation fluid is added to each well of filter plates and after at least 30 minutes of incubation, radioactive counts are measured in a Perkinelmer microplate scintillation counter.

T1 sequence (P52333 822-1111 limits assumed): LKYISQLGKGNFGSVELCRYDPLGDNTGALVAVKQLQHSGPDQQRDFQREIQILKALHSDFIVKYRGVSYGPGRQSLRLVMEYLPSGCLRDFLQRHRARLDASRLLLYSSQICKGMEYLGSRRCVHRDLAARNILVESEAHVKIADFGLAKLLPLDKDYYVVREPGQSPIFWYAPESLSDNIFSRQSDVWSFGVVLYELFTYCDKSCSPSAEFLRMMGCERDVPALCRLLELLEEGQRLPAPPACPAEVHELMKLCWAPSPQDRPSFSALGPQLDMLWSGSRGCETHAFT

Compound	IC50 [1] [nM]	melting point [°C]
O=C(Nc1cccc(C(F)(F)F)c1)c1c[nH]c2ncc(C3CC3)nc12 [Compound I-8, 2-Cyclopropyl-5H-pyrrolo[2,3-b]pyrazine-7-carboxylic acid (3-trifluoromethyl-phenyl)-amide]	963	271.1 to 272.9
CC(C)S(=O)(=O)N1CCCC(NC(=O)c2c[nH]c3ncc(C4CC4)nc23)C1 (stereo not drawn) [Compound I-29, 2-Cyclopropyl-5H-pyrrolo[2,3-b]pyrazine-7-carboxylic acid [1-(propane-2-sulfonyl)-piperidin-3-yl]-amide]	73.2	255 to 258
CC1(C)CCCC1NC(=O)c1c[nH]c2ncc(C3CC3)nc12 (stereo not drawn) [Compound I-7, 2-Cyclopropyl-5H-pyrrolo[2,3-b]pyrazine-7-carboxylic acid (2,2-dimethyl-cyclopentyl)-amide]	1.1	> 300
CC(C)(O)C1(NC(=O)c2c[nH]c3ncc(C4CC4)nc23)CCC1 [Compound I-13, 2-Cyclopropyl-5H-pyrrolo[2,3-b]pyrazine-7-carboxylic acid [1-(1-hydroxy-1-methyl-ethyl)-cyclobutyl]-amide]	42.7	264 to 266
Cc1ccc(C#N)cc1NC(=O)c1c[nH]c2ncc(C3CC3)nc12 [Compound I-9, 2-Cyclopropyl-5H-pyrrolo[2,3-b]pyrazine-7-carboxylic acid (5-cyano-2-methyl-phenyl)-amide]	157	280 to 284
CC(C)(O)C1(NC(=O)c2c[nH]c3ncc(C4CC4)nc23)CCOC1 (stereo not drawn) [Compound I-18, 2-Cyclopropyl-5H-pyrrolo[2,3-b]pyrazine-7-carboxylic acid [3-(1-hydroxy-1-methyl-ethyl)-tetrahydro-furan-3-yl]-amide]	342	213 to 215
CCS(=O)(=O)N1CCCC(NC(=O)c2c[nH]c3ncc(C4CC4)nc23)C1 (stereo not drawn) [Compound I-27, 2-Cyclopropyl-5H-pyrrolo[2,3-b]pyrazine-7-carboxylic acid (1-ethanesulfonyl-piperidin-3-yl)-amide]	17.3	266 to 269
N#Cc1cccc(NC(=O)c2c[nH]c3ncc(C4CC4)nc23)c1 [Compound I-5, 2-Cyclopropyl-5H-pyrrolo[2,3-b]pyrazine-7-carboxylic acid (3-cyano-phenyl)-amide]	735	272 to 274
CS(=O)(=O)N1CCC(NC(=O)c2c[nH]c3ncc(C4CC4)nc23)C1 (stereo not drawn) [Compound I-20, 2-Cyclopropyl-5H-pyrrolo[2,3-b]pyrazine-7-carboxylic acid (1-methanesulfonyl-pyrrolidin-3-yl)-amide]	35.4	> 300
O=C(NC1(CO)CCCC1)c1c[nH]c2ncc(C3CC3)nc12 [Compound I-3, 2-Cyclopropyl-5H-pyrrolo[2,3-b]pyrazine-7-carboxylic acid (1-hydroxymethyl-cyclopentyl)-amide]	44.2	272 to 274

Continued by falling IC50 [1], values first:

IC50 [1] [nM]	melting point [°C]	Compound
424	245 to 247	O=C(NC1CCCCC1)c1c[nH]c2ncc(Oc3ccc(F)cc3F)nc12 [Compound I-34, 2-(2,4-Difluoro-phenoxy)-5H-pyrrolo[2,3-b]pyrazine-7-carboxylic acid cyclohexylamide]
153	255 to 257	O=C(NC1CCCCC1)c1c[nH]c2ncc(Oc3ccccc3)nc12 [Compound I-33, 2-Phenoxy-5H-pyrrolo[2,3-b]pyrazine-7-carboxylic acid cyclohexylamide]
55.5	278 to 281	CS(=O)(=O)N1CCC[C@H](NC(=O)c2c[nH]c3ncc(C4CC4)nc23)C1 [Compound I-30, 2-Cyclopropyl-5H-pyrrolo[2,3-b]pyrazine-7-carboxylic acid ((S)-1-methanesulfonyl-piperidin-3-yl)-amide]
15.6	> 300	O=C(NC1CCCOC1)c1c[nH]c2ncc(C3CC3)nc12 (stereo not drawn) [Compound I-6, 2-Cyclopropyl-5H-pyrrolo[2,3-b]pyrazine-7-carboxylic acid (tetrahydro-pyran-3-yl)-amide]
13.3	> 300	O=C(NC1CCCC1)c1c[nH]c2ncc(C3CC3)nc12 [Compound I-23, 2-Cyclopropyl-5H-pyrrolo[2,3-b]pyrazine-7-carboxylic acid cyclopentylamide]
